This assay in a line: Cytotoxicity against human HepG2(2.2.15) cells. The assay is classed as functional, cell-based.
On to `COc1cccc2c1cc([N+](=O)[O-])c1c(C(=O)O[C@H]3/C=C(/C=O)CC/C=C(\C)CC/C=C(\C)C3)cc3c(c12)OCO3`, for which the IC50 (in general, the concentration needed to halve the response being measured) amounted to 5.44 µM. The result for `C/C1=C\CC/C(C=O)=C/[C@H](OC(=O)c2cc3c(c4c2c([N+](=O)[O-])cc2ccccc24)OCO3)C/C(C)=C/CC1` reads 8.23 µM. The value for `COc1cccc2c1cc([N+](=O)[O-])c1c(C(=O)O[C@H]3/C=C(\C=O)CC/C=C(\C)CC/C=C(\C)C3)cc3c(c12)OCO3` was 4.83 µM; that for `C/C1=C\CC/C(C=O)=C\[C@H](OC(=O)c2cc3c(c4c2c([N+](=O)[O-])cc2ccccc24)OCO3)C/C(C)=C/CC1` was 7.53 µM.

The record behind these values is ChEMBL document CHEMBL1158027, “Sesquiterpene esters of aristolochic acid from the root and stem of Aristolochia heterophylla” (J Nat Prod, 1999).
